These results are taken from paper PMC2650251 (Organic letters, 2008).

For data set [1] the following is noted: cited from earlier work.
Data set [2] concerns the target T1, PTP1B (Homo sapiens, UniProt P18031).
T1 sequence (P18031 1-435): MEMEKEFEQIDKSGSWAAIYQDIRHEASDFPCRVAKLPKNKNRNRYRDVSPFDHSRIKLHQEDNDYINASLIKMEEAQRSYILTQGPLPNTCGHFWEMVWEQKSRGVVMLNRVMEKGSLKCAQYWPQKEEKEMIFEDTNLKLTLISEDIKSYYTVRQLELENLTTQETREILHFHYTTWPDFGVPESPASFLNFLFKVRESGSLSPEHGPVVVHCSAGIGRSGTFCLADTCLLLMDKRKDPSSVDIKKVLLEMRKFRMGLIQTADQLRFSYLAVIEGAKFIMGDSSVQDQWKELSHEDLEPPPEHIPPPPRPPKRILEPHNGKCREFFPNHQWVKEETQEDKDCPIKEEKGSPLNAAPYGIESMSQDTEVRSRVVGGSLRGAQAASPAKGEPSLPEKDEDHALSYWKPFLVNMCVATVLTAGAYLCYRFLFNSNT
In words: Kinetic constants of pY peptides against PTP1B. The format is biochemical. Conditions: pH 7.4, peptide as substrate.

In the case of `N[C@@H](Cc1cc(F)c(O)c(F)c1)C(=O)O` [Compound 1, 3,5-difluorotyrosine], the “side chain pKa” value in data set [1] is on record as 7.2.

For orientation: Km means the concentration of substrate that gives half-maximal velocity. Usually kcat stands for the number of substrate molecules converted per active site and unit of time at saturation. Usually kcat/KM stands for the turnover number divided by the Michaelis constant. As for DDTF2YDpYAA-NH2 [Peptide 6], in data set [2], the Km stood at 13 ± 3 µM, the kcat stood at 36 ± 2 s⁻¹ and the kcat/KM stood at 2.7e+06 M⁻¹ s⁻¹.

For DDTYDpYAA-NH2 [Peptide 7], in data set [2], the Michaelis constant (Km) was 14 ± 2 µM, the kcat stood at 33 ± 1 s⁻¹ and the kcat/KM turned out to be 2.3e+06 M⁻¹ s⁻¹.

DNLF2YpYWD-NH2 [Peptide 4]: in data set [2], the Km came to 3.6 ± 0.4 µM, the kcat amounted to 36 ± 1 s⁻¹ and the kcat/KM was 1e+07 M⁻¹ s⁻¹.

On to REYEFpYAA-NH2 [Peptide 9], for which, in data set [2], the Km came to 6 ± 0.7 µM, the kcat amounted to 33 ± 1 s⁻¹ and the kcat/KM was determined as 5.4e+06 M⁻¹ s⁻¹.
